Results reported in patent US4585859A, “Analogues of morpholinyl daunorubicin and morpholinyl doxorubicin” (priority 1984, dated 1986).
“And” between values parts separate entries of the source, which are not always exact repeats. Identical values can stand only once. Like-named read-outs stand apart in the source and are kept apart here.

Legend:
P-388 leukemia = experiment: Mouse antitumor efficacy vs P-388 leukemia (Table B)
B-16 Melanoma = experiment: Mouse antitumor efficacy vs B-16 Melanoma (Table B)
[1] = system: DNA synthesis in L 1210 Cells; experiment: Inhibition of DNA synthesis in L 1210 Cells; assay type: cell-based, mouse
[2] = system: RNA synthesis in L 1210 Cells; experiment: Inhibition of RNA synthesis in L 1210 Cells; assay type: cell-based, mouse
[3] = system: Lymphocyte Leukemia P-388; experiment: Survival time of mice inoculated i.p. with Lymphocyte Leukemia P-388, treated days 5, 9 and 13 (Table A); assay type: in vivo, mouse; conditions: for T/C vs mouse leukemia P388: at 50 mg/kg (thiomorpholino) or 8 mg/kg (doxorubicin); for dose required vs mouse leukemia P388: dose for the T/C quoted
heart = conditions: some patients; cited from earlier work
mouse leukemia P388 = conditions: cited from earlier work; for T/C value against P388: U.S. Pat. No. 4,301,277; for activity in mouse leukemia P388 screen / dose requirement in P388 screen: 3-dose schedule q4d 5,9,13
[4] = system: tumors (colon cancer, melanoma); conditions: cited from earlier work
[5] = prior art; cited from earlier work
DNA = conditions: cited from earlier work
[6] = Mus musculus, L1210, read-out: Leukemia L-1210 Cells Inhibition of Synthesis ED50, DNA
[7] = P-388 in mice, q4d 5,9,13, at optimum dose
[8] = Mus musculus, L1210, read-out: Leukemia L-1210 Cells Inhibition of Synthesis ED50, RNA
[9] = Mus musculus, L1210, L-1210 cells, DNA synthesis, read-out: Leukemia L-1210 Cells Inhibition of Synthesis ED50, DNA
[10] = Mus musculus, L1210, L-1210 cells, RNA synthesis, read-out: Leukemia L-1210 Cells Inhibition of Synthesis ED50, RNA

COc1cccc2c1C(=O)c1c(O)c3c(c(O)c1C2=O)C[C@@](O)(C(=O)CO)C[C@@H]3O[C@H]1C[C@H](N2CCOCC2C#N)[C@H](O)[C@H](C)O1 (stereo partly shown) [NSC 357704, 3'-deamino-3'-(3"-cyano-4"-morpholinyl)doxorubicin]
Mouse Antitumor Efficacy at Optimum Dose, % T/C (P-388 leukemia; mouse, in vivo): 152% and > 158%
Optimum Dose (P-388 leukemia; mouse, in vivo): 0.05 mg/kg and 0.1 mg/kg
Mouse Antitumor Efficacy at Optimum Dose, % T/C (P-388 leukemia; mouse, in vivo, ip): 262% and > 360%
Optimum Dose (P-388 leukemia; mouse, in vivo, ip): 0.0125 mg/kg and 0.0063 mg/kg
Mouse Antitumor Efficacy at Optimum Dose, % T/C (B-16 Melanoma; mouse, in vivo, ip): > 138% and 123%

COc1cccc2c1C(=O)c1c(O)c3c(c(O)c1C2=O)C[C@@](O)(C(C)O)C[C@@H]3O[C@H]1C[C@H](N2CCOCC2C#N)[C@H](O)[C@H](C)O1 (stereo partly shown) [NSC 332305, 3'-deamino-3'-(3"-cyano-4"-morpholinyl)-13-dihydrodaunorubicin]
IC50 [1, 6]: 19 nM
Mouse Antitumor Efficacy at Optimum Dose, % T/C (B-16 Melanoma; section "ip B16", d 1, ip): 131%
inhibition of RNA vs DNA synthesis [2]: much more inhibitory toward RNA synthesis than toward DNA synthesis
Survival Time, % T/C [3, 7]: 143%

COc1cccc2c1C(=O)c1c(O)c3c(c(O)c1C2=O)C[C@@](O)(C(=O)CO)C[C@@H]3O[C@H]1C[C@H](N)[C@H](O)[C@H](C)O1 [doxorubicin]
IC50 [1, 6]: 1500 nM
Mouse Antitumor Efficacy at Optimum Dose, % T/C (P-388 leukemia; mouse, in vivo): 185%
Optimum Dose (P-388 leukemia; mouse, in vivo): 10 mg/kg
Mouse Antitumor Efficacy at Optimum Dose, % T/C (P-388 leukemia; mouse, in vivo, ip): 252% and 257% and > 285%
heart damage in chronic treatment (heart): irreversible heart damage that can be fatal if continued
T/C value against P388 (mouse leukemia P388; prior art): 160%
IC50 [2, 8]: 580 nM
T/C vs mouse leukemia P388 [3]: 160%
dose required vs mouse leukemia P388 [3]: 8 mg/kg
Survival Time, % T/C ([3]; mouse, in vivo): 160%
response of patients with some serious tumor types (colon cancer, melanoma) [4]: essentially no patients with some serious tumor types (colon cancer, melanoma) respond

COc1cccc2c1C(=O)c1c(O)c3c(c(O)c1C2=O)C[C@@](O)(C(C)=O)C[C@@H]3O[C@H]1C[C@H](N2CCOCC2)[C@H](O)[C@H](C)O1 [NSC 327451, 3'-deamino-3'-(4"-morpholinyl)daunorubicin]
IC50 [1, 9]: 760 nM
Mouse Antitumor Efficacy at Optimum Dose, % T/C (P-388 leukemia; ip P388, d 1, ip): 155%
Optimum Dose (P-388 leukemia; ip P388, d 1, ip): 0.25 mg/kg
Mouse Antitumor Efficacy at Optimum Dose, % T/C (P-388 leukemia; ip P388, d 1, iv): 152%
Optimum Dose (P-388 leukemia; ip P388, d 1, iv): 0.5 mg/kg
Mouse Antitumor Efficacy at Optimum Dose, % T/C (B-16 Melanoma; section "ip B16", d 1, ip): 135%
active dose relative to the dose of doxorubicin (mouse leukemia P388; prior art, P388): one-fortieth the dose of doxorubicin
T/C value against P388 (mouse leukemia P388; prior art): 166%
IC50 [2, 10]: 100 nM
Survival Time, % T/C [3, 7]: 166%

COc1cccc2c1C(=O)c1c(O)c3c(c(O)c1C2=O)C[C@@](O)(C(C)=O)C[C@@H]3O[C@H]1C[C@H](N2CCC(OC)CC2)[C@H](O)[C@H](C)O1 [NSC 334353, 3-deamino-3'-(4"-methoxy-1"-piperidinyl)-daunorubicin]
IC50 [1, 6]: 630 nM
IC50 [2, 8]: 120 nM
Survival Time, % T/C [3, 7]: 199%

COc1cccc2c1C(=O)c1c(O)c3c(c(O)c1C2=O)C[C@@](O)(C(C)=O)C[C@@H]3O[C@H]1C[C@H](N2CCOCC2C#N)[C@H](O)[C@H](C)O1 (stereo partly shown) [NSC 332304, 3'-deamino-3'-(3"-cyano-4"-morpholinyl)daunorubicin]
IC50 [1, 6]: 12 nM
Mouse Antitumor Efficacy at Optimum Dose, % T/C (P-388 leukemia; ip P388, d 1, ip): 175%
Optimum Dose (P-388 leukemia; ip P388, d 1, ip): 0.25 mg/kg
Mouse Antitumor Efficacy at Optimum Dose, % T/C (P-388 leukemia; ip P388, d 1, iv): 157%
Optimum Dose (P-388 leukemia; ip P388, d 1, iv): 0.5 mg/kg
Mouse Antitumor Efficacy at Optimum Dose, % T/C (B-16 Melanoma; section "ip B16", d 1, ip): 138%
inhibition of RNA vs DNA synthesis [2]: much more inhibitory toward RNA synthesis than toward DNA synthesis
Survival Time, % T/C [3, 7]: 197%

COc1cccc2c1C(=N)c1c(O)c3c(c(O)c1C2=O)C[C@@](O)(C(C)=O)C[C@@H]3O[C@H]1C[C@H](N)[C@H](O)[C@H](C)O1 [5-Iminodaunorubicin]
antitumor activity, side effects and dosage [5]: retained activity with reduced side effects

COc1cccc2c1C(=N)c1c(O)c3c(c(O)c1C2=O)C[C@@](O)(C(=O)CO)C[C@@H]3O[C@H]1C[C@H](N)[C@H](O)[C@H](C)O1 [5-iminodoxorubicin]
antitumor activity, side effects and dosage [5]: showed enhanced activity but required higher dosages

COc1cccc2c1C(=N)c1c(O)c3c(c(O)c1C2=O)C[C@@](O)(C(O)CO)C[C@@H]3O[C@H]1C[C@H](N2CCOCC2)[C@H](O)[C@H](C)O1 (stereo partly shown) [NSC 355465, 3'-deamino-3'-(4"-morpholinyl)-5-imino-13-dihydrodoxorubicin]
IC50 [1, 6]: > 100000 nM
IC50 [2, 8]: 24000 nM
Survival Time, % T/C [3, 7]: 161%

CCCCC(=O)OCC(=O)[C@]1(O)Cc2c(O)c3c(c(O)c2[C@@H](O[C@H]2C[C@H](NC(=O)C(F)(F)F)[C@H](O)[C@H](C)O2)C1)C(=O)c1c(OC)cccc1C3=O [AD32]
activity in mouse leukemia P388 screen (mouse leukemia P388): most active new analogues so far
dose requirement in P388 screen (mouse leukemia P388): required significantly higher doses
interaction with DNA in vitro (DNA): fail to interact with DNA in vitro

COc1cccc2c1C(=O)c1c(O)c3c(c(O)c1C2=O)C[C@@](O)(C(C)=O)C[C@@H]3O[C@H]1C[C@H](N)[C@H](O)[C@H](C)O1 [daunorubicin]
IC50 [1, 6]: 660 nM
Mouse Antitumor Efficacy at Optimum Dose, % T/C (B-16 Melanoma; mouse, in vivo, ip): 195%
IC50 [2, 8]: 330 nM
Survival Time, % T/C ([3]; mouse, in vivo): 130%

COc1cccc2c1C(=O)c1c(O)c3c(c(O)c1C2=O)C[C@@](O)(C(=O)CO)C[C@@H]3O[C@H]1C[C@H](N2C(=O)COCC2C#N)[C@H](O)[C@H](C)O1 (stereo partly shown) [3'-deamino-3'-(3"-cyano-5"-oxo-4"-morpholinyl)-doxorubicin]
IC50 ([1]; l1210 cells, read-out: Leukemia L-1210 Cells Inhibition of Synthesis ED50, DNA): 50 nM
IC50 ([2]; l1210 cells, read-out: Leukemia L-1210 Cells Inhibition of Synthesis ED50, RNA): 30 nM

COc1cccc2c1C(=O)c1c(O)c3c(c(O)c1C2=O)C[C@@](O)(C(C)O)C[C@@H]3O[C@H]1C[C@H](N2CCOCC2)[C@H](O)[C@H](C)O1 (stereo partly shown) [NSC 327450, 3'-deamino-3'-(4"-morpholinyl)-13-dihydrodaunorubicin]
IC50 [1, 9]: 2200 nM
Mouse Antitumor Efficacy at Optimum Dose, % T/C (B-16 Melanoma; section "ip B16", d 1, ip): 121%
IC50 [2, 10]: 670 nM
Survival Time, % T/C [3, 7]: 132%

COc1cccc2c1C(=O)c1c(O)c3c(c(O)c1C2=O)C[C@@](O)(C(=O)CO)C[C@@H]3O[C@H]1C[C@H](N2CCOCC2)[C@H](O)[C@H](C)O1 [NSC 354646, 3'-deamino-3'-(4"-morpholinyl)doxorubicin]
Mouse Antitumor Efficacy at Optimum Dose, % T/C (P-388 leukemia; ip P388, d 1, ip): 182%
Optimum Dose (P-388 leukemia; ip P388, d 1, ip): 0.05 mg/kg
Mouse Antitumor Efficacy at Optimum Dose, % T/C (P-388 leukemia; ip P388, d 1, iv): > 143%
Optimum Dose (P-388 leukemia; ip P388, d 1, iv): 0.062 mg/kg
Mouse Antitumor Efficacy at Optimum Dose, % T/C (P-388 leukemia; ip P388, q4d 1,5,9, ip): 224%
Optimum Dose (P-388 leukemia; ip P388, q4d 1,5,9, ip): 0.05 mg/kg
Mouse Antitumor Efficacy at Optimum Dose, % T/C (P-388 leukemia; ip P388, q4d 1,5,9, po): 175%
Optimum Dose (P-388 leukemia; ip P388, q4d 1,5,9, po): 0.05 mg/kg
Mouse Antitumor Efficacy at Optimum Dose, % T/C (P-388 leukemia; ip P388, qd 1-9, ip): 209%
Optimum Dose (P-388 leukemia; ip P388, qd 1-9, ip): 0.0125 mg/kg

COc1cccc2c1C(=O)c1c(O)c3c(c(O)c1C2=O)C[C@@](O)(C(O)CO)C[C@@H]3O[C@H]1C[C@H](N2CCOCC2C#N)[C@H](O)[C@H](C)O1 (stereo partly shown) [NSC 360291, 3'-deamino-3'-(3"-cyano-4"-morpholinyl)-13-dihydrodoxorubicin]
Mouse Antitumor Efficacy at Optimum Dose, % T/C (P-388 leukemia; mouse, in vivo, ip): 183% and 267%
Optimum Dose (P-388 leukemia; mouse, in vivo, ip): 0.05 mg/kg and 0.025 mg/kg
Mouse Antitumor Efficacy at Optimum Dose, % T/C (B-16 Melanoma; mouse, in vivo, ip): 149% and 121%
Survival Time, % T/C [3, 7]: 150%

COc1cccc2c1C(=N)c1c(O)c3c(c(O)c1C2=O)C[C@@](O)(C(=O)CO)C[C@@H]3O[C@H]1C[C@H](N2CCOCC2)[C@H](O)[C@H](C)O1 [NSC 355277, 3'-deamino-3'-(4"-morpholinyl)-5-iminodoxorubicin]
Mouse Antitumor Efficacy at Optimum Dose, % T/C (P-388 leukemia; ip P388, d 1, ip): > 193%
Optimum Dose (P-388 leukemia; ip P388, d 1, ip): 2 mg/kg
Mouse Antitumor Efficacy at Optimum Dose, % T/C (P-388 leukemia; ip P388, d 1, iv): 166%
Optimum Dose (P-388 leukemia; ip P388, d 1, iv): 2.5 mg/kg

COc1cccc2c1C(=O)c1c(O)c3c(c(O)c1C2=O)C[C@@](O)(C(C)O)C[C@@H]3O[C@H]1C[C@H](N2CCC(OC)CC2)[C@H](O)[C@H](C)O1 (stereo partly shown) [NSC 334354, 3'-deamino-3'-(4'-methoxy-1-piperidinyl)-13-dihydrodaunorubicin]
IC50 [1, 9]: 580 nM
IC50 [2, 10]: 80 nM
Survival Time, % T/C [3, 7]: 199%

COc1cccc2c1C(=O)c1c(O)c3c(c(O)c1C2=O)C[C@@](O)(C(C)=O)C[C@@H]3O[C@H]1C[C@H](N(Cc2ccccc2)Cc2ccccc2)[C@H](O)[C@H](C)O1 [N,N-dibenzyldaunorubicin]
activity in mouse leukemia P388 screen (mouse leukemia P388): most active new analogues so far
dose requirement in P388 screen (mouse leukemia P388): required significantly higher doses
interaction with DNA in vitro (DNA): fail to interact with DNA in vitro

COc1cccc2c1C(=O)c1c(O)c3c(c(O)c1C2=O)C[C@@](O)(C(C)=O)C[C@@H]3O[C@H]1C[C@H](N2CCSCC2)[C@H](O)[C@H](C)O1
T/C vs mouse leukemia P388 [3]: 169%
dose required vs mouse leukemia P388 [3]: 50 mg/kg
